Tests used:
[1] = 308.15 K, 101 kPa, Liquid; for speed of sound: Linear variable-path acoustic interferometer
[2] = xn = mol fraction of the nth substance listed; conditions: 308.15 K, 101 kPa, Liquid; for speed of sound: Linear variable-path acoustic interferometer

CC(=O)c1ccc(Cl)cc1 [4'-chloroacetophenone]
[1]
Conditions	mass density [kg/m3]	speed of sound [m/s]
–	1181.3	1390

CC(=O)c1ccc(Cl)cc1 [4'-chloroacetophenone] + CC#N
[2]
Conditions	mass density [kg/m3]	speed of sound [m/s]
x1 = 0.092	857.2	1256
x1 = 0.1488	900.3	1266
x1 = 0.2128	941.5	1278
x1 = 0.2863	982.6	1292
x1 = 0.3792	1025.8	1310
x1 = 0.4876	1077.5	1330
x1 = 0.6196	1106.9	1350
x1 = 0.7847	1145	1372
x1 = 1	1181.3	1390

CC(=O)c1ccc(C)cc1 [4'-methylacetophenone]
[1]
Conditions	mass density [kg/m3]	speed of sound [m/s]
–	996.3	1438

CC(=O)c1ccc(C)cc1 [4'-methylacetophenone] + CC#N
[2]
Conditions	mass density [kg/m3]	speed of sound [m/s]
x1 = 0.0872	816	1272
x1 = 0.1449	841.6	1288
x1 = 0.2088	865.3	1305
x1 = 0.2823	888.1	1323
x1 = 0.3756	912.4	1344
x1 = 0.4771	934	1365
x1 = 0.6125	955.6	1389
x1 = 0.7811	976.1	1413
x1 = 1	996.3	1438

CC#N [acetonitrile]
[1]
Conditions	mass density [kg/m3]	speed of sound [m/s]
–	770.6	1239

CC#N [acetonitrile] + CC(=O)c1ccc(C)cc1
[2], x2 = 0
Conditions	mass density [kg/m3]	speed of sound [m/s]
–	770.6	1239

CC#N [acetonitrile] + CC(=O)c1ccc(Cl)cc1
[2], x2 = 0
Conditions	mass density [kg/m3]	speed of sound [m/s]
–	770.6	1239

CC#N [acetonitrile] + CC(=O)c1ccccc1
[2], x2 = 0
Conditions	mass density [kg/m3]	speed of sound [m/s]
–	770.6	1239

CC#N [acetonitrile] + CCC(=O)c1ccccc1
[2], x2 = 0
Conditions	mass density [kg/m3]	speed of sound [m/s]
–	770.6	1239

CC(=O)c1ccccc1 [acetophenone]
[1]
Conditions	mass density [kg/m3]	speed of sound [m/s]
–	1020	1445

CC(=O)c1ccccc1 [acetophenone] + CC#N
[2]
Conditions	mass density [kg/m3]	speed of sound [m/s]
x1 = 0.048	796.8	1254
x1 = 0.1023	823.3	1268
x1 = 0.1626	849.3	1284
x1 = 0.2321	874.7	1303
x1 = 0.3113	900	1327
x1 = 0.4024	924.7	1351
x1 = 0.5125	949.3	1374
x1 = 0.6426	972.2	1395
x1 = 0.8018	995.6	1417
x1 = 1	1020	1445

CCC(=O)c1ccccc1 [ethyl phenyl ketone]
[1]
Conditions	mass density [kg/m3]	speed of sound [m/s]
–	1000.6	1432

CCC(=O)c1ccccc1 [ethyl phenyl ketone] + CC#N
[2]
Conditions	mass density [kg/m3]	speed of sound [m/s]
x1 = 0.0418	793.4	1250
x1 = 0.0922	817.8	1264
x1 = 0.1459	841.2	1279
x1 = 0.2084	864.9	1296
x1 = 0.2864	889.8	1314
x1 = 0.3757	913.6	1335
x1 = 0.4796	936	1357
x1 = 0.6093	957.5	1381
x1 = 0.7791	978.6	1406
x1 = 1	1000.6	1432
